Values of other authors as cited in patent US10137245B2 (priority 2010, dated 2018).

Assays:
[1] = system: human surgical patients; conditions: propofol concentration, Shafer et al 1988
[2] = system: healthy human volunteers; conditions: intrathecal morphine group; extremely low plasma levels; Bailey and colleagues

| Compound | EC50 for awakening [1] | EC50 for orientation [1] | Effect on HRV [2] |
| --- | --- | --- | --- |
| CC(C)c1cccc(C(C)C)c1O [propofol, 2,6-diisopropylphenol] | 1.07 ± 0.13 µg/mL | 0.95 ± 0.19 µg/mL | – |
| CN1CC[C@]23c4c5ccc(O)c4O[C@H]2[C@@H](O)C=C[C@H]3[C@H]1C5 [morphine] | – | – | substantial reduction |
